# In ChEMBL document CHEMBL1649450, “In vitro activity of micafungin against planktonic and sessile Candida albicans isolates” (2009):
# *1 amine or outer side, *2 acyl side, *3 side chain or, on linkers, in order; H or OH if unused. Where a SMILES comes first, the peptide text is derived from it. Bridges are numbered along the chain shown (N, C = ends). [ ]: non-standard residue; d: D form. The star is where a group is joined. hTyr(3S-OH,4S-OH,3'-OSO3H) = N[C@H](C(=O)O)[C@H](O)[C@@H](O)c1ccc(O)c(OS(=O)(=O)O)c1; pTerphenylCO(4''-OnC5H11) = CCCCCOc1ccc(-c2ccc(-c3ccc(C(=O)*)cc3)cc2)cc1; Orn(4R-OH,5R-OH) = O=C([C@H](C[C@@H](O)[C@@H](O)N[*:3])N[*:1])[*:2]; hTyr(3S-OH,4S-OH) = N[C@H](C(=O)O)[C@H](O)[C@@H](O)c1ccc(O)cc1; Pro(3S-OH,4S-Me) = C[C@H]1CN[C@H](C(=O)O)[C@H]1O; X1 = CCCCCOc1ccc(-c2cc(-c3ccc(C(=O)*)cc3)no2)cc1; Gln(3R-OH) = NC(=O)C[C@@H](O)[C@H](N)C(=O)O; Hyp = O=C(O)[C@@H]1C[C@@H](O)CN1
# What was measured:
# Assay type in all cases: functional
# Candida albicans [1] = experiment: Antimicrobial activity against Candida albicans GDH 2346 sessile cells by microtiter plated based assay
# Candida albicans [2] = experiment: Antimicrobial activity against Candida albicans clinical isolates planktonic cells by broth microdilution method
# Candida albicans [3] = experiment: Antimicrobial activity against Candida albicans clinical isolate sessile cells by microtiter plated based assay
# Candida albicans [4] = experiment: Antimicrobial activity against Candida albicans GDH 2346 planktonic cells by broth microdilution method
# Candida albicans [5] = experiment: Antimicrobial activity against Candida albicans clinical isolate biofilm by broth microdilution method
MIC (Candida albicans [1]) [µg/mL],MIC50 (Candida albicans [2]) [µg/mL],MIC90 (Candida albicans [2]) [µg/mL],MIC50 (Candida albicans [3]) [µg/mL],MIC90 (Candida albicans [3]) [µg/mL],MIC (Candida albicans [4]) [µg/mL],Structure (SMILES),MIC90 (Candida albicans [5]) [µg/mL]
0.53,0.125,0.125,0.5,0.5,0.06,"CCCCCOc1ccc(-c2cc(-c3ccc(C(=O)N[C@H]4C[C@@H](O)[C@@H](O)NC(=O)[C@@H]5[C@@H](O)[C@@H](C)CN5C(=O)[C@H]([C@H](O)CC(N)=O)NC(=O)[C@H]([C@H](O)[C@@H](O)c5ccc(O)c(OS(=O)(=O)O)c5)NC(=O)[C@@H]5C[C@@H](O)CN5C(=O)[C@H]([C@@H](C)O)NC4=O)cc3)no2)cc1 [MICAFUNGIN] (X1-[Orn(4R-OH,5R-OH)]T[Hyp][hTyr(3S-OH,4S-OH,3'-OSO3H)][Gln(3R-OH)][Pro(3S-OH,4S-Me)]; lactam 1-C)",
,,,,,,"CCCCCOc1ccc(-c2ccc(-c3ccc(C(=O)N[C@H]4C[C@@H](O)[C@@H](O)NC(=O)[C@@H]5[C@@H](O)[C@@H](C)CN5C(=O)[C@H]([C@@H](C)O)NC(=O)[C@H]([C@H](O)[C@@H](O)c5ccc(O)cc5)NC(=O)[C@@H]5C[C@@H](O)CN5C(=O)[C@H]([C@@H](C)O)NC4=O)cc3)cc2)cc1 [ANIDULAFUNGIN] ({pTerphenylCO(4''-OnC5H11)}-[Orn(4R-OH,5R-OH)]T[Hyp][hTyr(3S-OH,4S-OH)]T[Pro(3S-OH,4S-Me)]; lactam 1-C)",≤ 0.03
,,,,,,CC[C@H](C)C[C@H](C)CCCCCCCCC(=O)N[C@H]1C[C@@H](O)[C@@H](NCCN)NC(=O)[C@@H]2[C@@H](O)CCN2C(=O)[C@H]([C@H](O)CCN)NC(=O)[C@H]([C@H](O)[C@@H](O)c2ccc(O)cc2)NC(=O)[C@@H]2C[C@@H](O)CN2C(=O)[C@H]([C@@H](C)O)NC1=O [CASPOFUNGIN],2
